These results are taken from US8614324B2, “Filamin A binding anti-inflammatory and analgesic” (priority 2008, dated 2013).

For the assay, the target named is T1, mu opiate receptor (MOR) (Rattus norvegicus, UniProt P33535).
T1 construct: from tissue; host or cells: striatal membrane preparation (rat striatum)
In words: MOR agonist activity, [35S]GTPγS binding assay using striatal membranes. On the set-up: MOR agonist activity, [35S]GTPγS binding to Gαo: reference not given here. The format is biochemical. On the procedure:
To assess the mu opiate receptor (MOR) agonist activity of positive compounds from the FLNA screening, compounds were tested in a [^35S]GTPγS binding assay using striatal membranes.
Striatal tissue was homogenized in 10 volumes of ice cold 25 mM HEPES buffer, pH 7.4, which contained 1 mM EGTA, 100 mM sucrose, 50 μg/ml leupeptin, 0.04 mM PMSF, 2 μg/ml soybean trypsin inhibitor and 0.2% 2-mercaptoethanol. The homogenates were centrifuged at 800×g for 5 minutes and the supernatants were centrifuged at 49,000×g for 20 minutes. The resulting pellets were suspended in 10 volume of reaction buffer, which contained 25 mM HEPES, pH 7.5, 100 mM NaCl, 50 μg/ml leupeptin, 2 μg/ml soybean trypsin inhibitor, 0.04 mM PMSF and 0.02% […].
The resultant striatal membrane preparation (200 μg) was admixed and maintained (incubated) at 30° C. for 5 minutes in reaction buffer as above that additionally contained 1 mM MgCl2 and 0.5 nM [^35S]GTPγS (0.1 μCi/assay, PerkinElmer Life and Analytical Sciences) in a total volume of 250 μl and continued for 5 minutes in the absence or presence of 0.1-10 μM of an assayed compound of interest. The reaction was terminated by dilution with 750 μl of ice-cold reaction buffer that contained 20 mM MgCl2 and 1 mM EGTA and immediate centrifugation at 16,000×g for 5 minutes.
The resulting pellet was solubilized by sonicating for 10 seconds in 0.5 ml of immunoprecipitation buffer containing 0.5% digitonin, 0.2% sodium cholate and 0.5% NP-40. Normal rabbit serum (1 μl) was added to 1 ml of lysate and incubated at 25° C. for 30 minutes. Nonspecific immune complexes were removed by incubation with 25 μl of protein A/G-conjugated agarose beads at 25° C. for 30 minutes followed by centrifugation at 5,000×g at 4° C. for 5 minutes. The supernatant was divided and separately incubated at 25° C. for 30 minutes with antibodies raised against Gαo proteins (1:1,000 dilutions).
The immunocomplexes so formed were collected by incubation at 25° C. for 30 minutes with 40 μl of agarose-conjugated protein A/G beads and centrifugation at 5,000×g at 4° C. for 5 minutes. The pellet was washed and suspended in buffer containing 50 mM Tris-HCl, pH 8.0, and 1% NP-40. The radioactivity in the suspension was determined by liquid scintillation spectrometry. […] DAMGO (H-Tyr-D-Ala-Gly-N-MePhe-Gly-OH; 1 or 10 μM) was used as a positive control.

Where [1] appears, read: 0.1 μM compound, striatal membranes.
The mark [2] stands for this setting: 1 μM compound + BFNA (1 μM β-funaltrexamine).
Where [3] appears, read: 1 μM compound, striatal membranes.

T1 sequence (P33535 whole entry): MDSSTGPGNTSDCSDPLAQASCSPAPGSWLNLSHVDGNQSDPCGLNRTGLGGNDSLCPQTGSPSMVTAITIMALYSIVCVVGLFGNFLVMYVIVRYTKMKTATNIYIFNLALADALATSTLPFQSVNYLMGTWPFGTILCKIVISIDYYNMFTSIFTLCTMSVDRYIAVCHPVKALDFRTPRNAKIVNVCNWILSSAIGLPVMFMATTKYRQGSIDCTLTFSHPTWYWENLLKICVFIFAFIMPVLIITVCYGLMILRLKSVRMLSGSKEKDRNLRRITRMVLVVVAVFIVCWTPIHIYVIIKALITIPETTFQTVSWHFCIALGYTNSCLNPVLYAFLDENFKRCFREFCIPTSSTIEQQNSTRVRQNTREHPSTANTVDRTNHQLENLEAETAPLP

In the case of `O=C1CN(C2CCc3ccccc3C2)C2(CCN(S(=O)(=O)c3ccccc3)CC2)N1` (stereo not drawn) [C0136M(P5)], the “MOR agonist activity, [35S]GTPγS binding to Gαo” value (“MOR agonist activity” below) is 176.8% under setting [1], 74.5% under setting [2] and 237.3% under setting [3].

As for `O=C1CN(Cc2ccccc2)C2(CCN(C3CCCCC3)CC2)N1` [C0137M(P7)], the “MOR agonist activity” value runs as follows: under setting [1], 180.8%; under setting [2], 55.8%; under setting [3], 193.8%.

For the compound `COc1ccc(S(=O)(=O)N2CCC3(CC2)NCCO3)cc1` [Compound C0026], the “MOR agonist activity” value under setting [1] came out at 207.2%; the “MOR agonist activity” value under setting [2] turned out to be 21.2%; the “MOR agonist activity” value under setting [3] turned out to be 288.4%.

In the case of `COc1ccc(S(=O)(=O)N2CCOC23CCNCC3)cc1` [Compound C0027], the “MOR agonist activity” value stood at 233.2% under setting [1], 72.2% under setting [2] and 313.9% under setting [3].

Turning to `O=[N+]([O-])c1ccc(S(=O)(=O)N2CCC3(CC2)NCCO3)cc1` [Compound C0040], the “MOR agonist activity” value runs as follows: under setting [1], 145.8%; under setting [2], 90.4%; under setting [3], 308.3%.

On to `O=[N+]([O-])c1ccc(S(=O)(=O)N2CCC3(CC2)NCCS3)cc1` [Compound C0044], for which the “MOR agonist activity” value worked out at 173.7% under setting [1], 59.1% under setting [2] and 280.1% under setting [3].

Regarding `CC(=O)c1ccc(S(=O)(=O)N2CCOC23CCNCC3)cc1` [Compound C0046], the “MOR agonist activity” value came to 286.2% under setting [1], 156.8% under setting [2] and 492.9% under setting [3].

On to `CC(=O)N1CCSC12CCN(S(=O)(=O)c1ccc([N+](=O)[O-])cc1)CC2` [Compound C0050], for which the “MOR agonist activity” value worked out at 110.3% under setting [1], 59.0% under setting [2] and 127.6% under setting [3].

Take `CC(=O)c1ccc(S(=O)(=O)N2CCC3(CC2)OCCN3S(C)(=O)=O)cc1` [Compound C0056]: the “MOR agonist activity” value was determined as 98.6% under setting [1], 86.3% under setting [2] and 193.4% under setting [3].

With `CC(=O)c1ccc(S(=O)(=O)N2CCC3(CC2)NCCS3)cc1` [Compound C0060], the “MOR agonist activity” value reads like this: under setting [1], 166.5%; under setting [2], 143.9%; under setting [3], 218.9%.

On to `CC(=O)c1ccc(S(=O)(=O)N2CC(=O)NC23CCNCC3)cc1` [Compound C0086M], for which the “MOR agonist activity” value under setting [1] came out at 206.8%; the “MOR agonist activity” value under setting [2] was 152.3%; the “MOR agonist activity” value under setting [3] is on record as 265.3%.

On to `CC(=O)c1ccc(S(=O)(=O)N2CCC3(CC2)NC(=O)CO3)cc1` [Compound C0087M], for which the “MOR agonist activity” value is, setting by setting: under setting [1], 262.8%; under setting [2], 142.5%; under setting [3], 329.6%.

As for `COc1ccc(S(=O)(=O)N2CCOC23CCN(C)CC3)cc1` [Compound C0088M], the “MOR agonist activity” value under setting [1] is listed as 276.3%; the “MOR agonist activity” value under setting [2] came out at 177.1%; the “MOR agonist activity” value under setting [3] is on record as 355.3%.

For `CCN1CCC2(CC1)OCCN2S(=O)(=O)c1ccc(OC)cc1` [Compound C0089M], the “MOR agonist activity” value under setting [1] came out at 234.5%; the “MOR agonist activity” value under setting [2] came to 81.9%; the “MOR agonist activity” value under setting [3] was found to be 295.3%.

Turning to `COc1ccc(S(=O)(=O)N2CCOC23CCN(CC2CC2)CC3)cc1` [Compound C0090M], the “MOR agonist activity” value is given as 237.0% under setting [1], 41.0% under setting [2] and 341.0% under setting [3].

Consider `C=CCN1CCC2(CC1)OCCN2S(=O)(=O)c1ccc(OC)cc1` [Compound C0091M], for which the “MOR agonist activity” value is reported as 207.9% under setting [1], 80.8% under setting [2] and 274.4% under setting [3].

In the case of `CC(=O)c1ccc(S(=O)(=O)N2CCOC23CCN(C)CC3)cc1` [Compound C0093M], the “MOR agonist activity” value under setting [1] is given as 140.0%; the “MOR agonist activity” value under setting [2] stood at 44.0%; the “MOR agonist activity” value under setting [3] is given as 211.8%.

With `CCN1CCC2(CC1)OCCN2S(=O)(=O)c1ccc(C(C)=O)cc1` [Compound C0094M], the “MOR agonist activity” value runs as follows: under setting [1], 172.5%; under setting [2], 115.3%; under setting [3], 263.5%.

Regarding `CC(=O)c1ccc(S(=O)(=O)N2CCOC23CCN(CC2CC2)CC3)cc1` [Compound C0095M], the “MOR agonist activity” value under setting [1] is listed as 189.1%; the “MOR agonist activity” value under setting [2] stood at 107.7%; the “MOR agonist activity” value under setting [3] amounted to 224.6%.

With `C=CCN1CCC2(CC1)OCCN2S(=O)(=O)c1ccc(C(C)=O)cc1` [Compound C0096M], the “MOR agonist activity” value runs as follows: under setting [1], 186.4%; under setting [2], 127.1%; under setting [3], 328.9%.

Turning to `CCOC(=O)CN1CCC2(CC1)OCCN2S(=O)(=O)c1ccc(C(C)=O)cc1` [Compound C0099M], the “MOR agonist activity” value is, setting by setting: under setting [1], 157.2%; under setting [2], 114.7%; under setting [3], 195.7%.

For `CC(=O)c1ccc(S(=O)(=O)N2CCOC23CCN(CC(=O)O)CC3)cc1` [Compound C0100M], the “MOR agonist activity” value was 173.6% under setting [1], 195.6% under setting [2] and 245.9% under setting [3].

Turning to `CCCCN1CCC2(CC1)OCCN2S(=O)(=O)c1ccc(C(C)=O)cc1` [Compound C0101M], the “MOR agonist activity” value by setting is: under setting [1], 138.2%; under setting [2], 174.8%; under setting [3], 274.3%.

As for `CCCCN1CCC2(CC1)OCCN2S(=O)(=O)c1ccc(OC)cc1` [Compound C0102M], the “MOR agonist activity” value is, setting by setting: under setting [1], 131.8%; under setting [2], 150.4%; under setting [3], 272.0%.

Turning to `CN1CCC2(CC1)NC(=O)CN2Cc1ccccc1` [Compound C0104M], the “MOR agonist activity” value under setting [1] is given as 188.2%; the “MOR agonist activity” value under setting [2] was 143.8%; the “MOR agonist activity” value under setting [3] stood at 238.9%.

As for `CN1CCC2(CC1)NCC(=O)N2Cc1ccccc1` [Compound C0105M], the “MOR agonist activity” value runs as follows: under setting [1], 198.1%; under setting [2], 73.1%; under setting [3], 220.3%.

Regarding `CN1CCC2(CC1)OCCN2S(=O)(=O)c1ccc(S(C)(=O)=O)cc1` [Compound C0106M], the “MOR agonist activity” value under setting [1] was determined as 171.8%; the “MOR agonist activity” value under setting [2] was 117.2%; the “MOR agonist activity” value under setting [3] came to 240.7%.

As to `CC(=O)c1ccc(S(=O)(=O)N2CC(CN(C)C)OC23CCN(C)CC3)cc1` (stereo not drawn) [Compound C0108M], the “MOR agonist activity” value runs as follows: under setting [1], 205.6%; under setting [2], 76.9%; under setting [3], 258.5%.

Regarding `O=C1CNC2(CCNCC2)N1Cc1ccccc1` [Compound C0114M], the “MOR agonist activity” value is given as 114.0% under setting [1], 35.9% under setting [2] and 144.3% under setting [3].

For the compound `O=C1CN(Cc2ccccc2)C2(CCNCC2)N1` [Compound C0115M], the “MOR agonist activity” value is, setting by setting: under setting [1], 177.2%; under setting [2], 118.4%; under setting [3], 226.8%.
